No end group written: not given here.
How the values were obtained:
Solubility of peptide = format: physicochemical
[1] = system: FVIII-DR2+ T cell hybridoma clones; test: FVIII peptide specificity of T cell hybridomas generated from FVIII-/- HLA-DR2+ mice (IL-2 ELISA); format: cell-based, mouse; settings: of 19 hybridomas specific for factor VIII; factor VIII deficient HLA-DR2 mice
Excerpt: Factor VIII deficient mice expressing HLA-DR2 were immunised with factor VIII in adjuvant. Spleen cells from the immunised mice were restimulated in vitro with factor VIII and the resulting lymphoblasts were fused with BW5147, as described above. T-cell hybridomas were screened for their response to the 12 predicted peptides. Yet again, the majority of hybridomas responded to peptides DNIMV (SEQ ID NO: 11) and PRCLT (SEQ ID NO: 9). Of 19 hybridomas specific for factor VIII, 10 responded to DNIMV (SEQ ID NO: 11), 6 to PRCLT (SEQ ID NO: 9), 1 to PPIIA (SEQ ID NO: 4), 1 to SLYIS (SEQ ID NO: 3) and 1 to DTLLI (SEQ ID NO: 8).
The same method was followed as for (ii), except the mice were FVIII-deficient and HLA-DR2+.

LNC from FVIII-DR2+ mice = test: Recall responses of lymph node cells from FVIII-DR2+ mice primed with rhFVIII/CFA; format: cell-based, mouse; settings: FVIII-DR2+ animals immunised with factor VIII in adjuvant; FIG. 3
Excerpt: HLA-DR2 transgenic mice were crossed with factor VIII deficient mice to create a model of haemophilia expressing the human HLA class II MHC molecule.
These FVIII-DR2+ animals were immunised with factor VIII in adjuvant. Draining lymph nodes were isolated and tested for their response to the peptide panel.
The same method was followed as for (i), except the mice were FVIII-deficient, HLA-DR2+ and murine MHC class II null.

[2] = system: FVIII+DR2+ T cell hybridoma clones; test: FVIII peptide specificity of T cell hybridomas generated from DR2+ mice (IL-2 ELISA); format: cell-based, mouse; settings: for number of hybridomas responding to peptide: of the 27 hybridomas screened, 20 μg/ml peptide, IL-2
Excerpt: HLA-DR2 mice were first immunised with factor VIII in adjuvant. Spleen cells from immune mice were restimulated in vitro with factor VIII and the resulting lymphoblasts were fused with the BW5147 thymoma using polyethylene glycol.
T-cell hybridomas were selected in HAT medium and the hybridomas cloned and tested for their response to factor VIII. The hybridomas were then screened for their response to the 12 predicted peptides.
HLA-DR2+ murine MHC class II null mice were immunised as above. On day 10 draining lymph nodes were removed and lymphocytes cultured at 2.5×10^6 cells/ml, 1 ml/well in 24 well plates in the presence of 20 μg/ml rhFVIII for 3 days. Following this stimulation, lymphocytes were recovered, washed and fused with TCRα^−β^− BW fusion partner cells at a ratio of 4 BW cells to 1 lymphocyte, using polyethylene glycol as described by Nelson et al (1980) PNAS 77(5):2866. Fused cells were carefully washed and then plated out in flat bottomed 96 well plates for 2 days before the addition of HAT medium to select for T cell hybridomas. Cells were monitored for growth and approximately 10 days after fusions were performed, individual clones were selected and transferred to 24 well plates in HAT medium. Clones were maintained in HAT medium for at least 2 weeks before being weaned into HT medium and then complete medium. Clones were tested for antigenic specificity by culturing 100 μl of hybridoma cells with 5×10^4 Mgar cells in the presence and absence of 20 μg/ml rhFVIII overnight. Supernatants were then collected and assessed for IL-2 production by ELISA, with clones producing IL-2 in response to rhFVIII being considered positive for FVIII-specificity. To investigate the repertoire of predicted FVIII peptides FVIII-specific clones were again tested for IL-2 production, following overnight incubation with 20 μg/ml of each of the 12 peptides.

[3] = system: FVIII-/- clones with fresh or fixed Mgar cells; test: Apitope test: presentation by fresh or paraformaldehyde-fixed Mgar cells to hybridoma clones, IL-2 by ELISA; format: cell-based, mouse; settings: Mgar cells fresh or fixed with 1% paraformaldehyde, 20 μg/ml, FIG. 5
Experimental: In order to be an apitope, a peptide must be capable of binding to an MHC class I or II molecule without further antigen processing (i.e. trimming) and be presented to a T cell. In the present case, the capacity of peptides to be presented by fixed APC was investigated.
Mgar cells were either fresh or fixed with 1% paraformaldehyde. Clones were tested for antigenic specificity by culturing 100 μl of hybridoma cells with 5×10^4 Mgar cells in the presence and absence of 20 μg/ml rhFVIII or peptide epitopes overnight. Supernatants were then collected and assessed for IL-2 production by ELISA.

HLA-DR2 transgenic mice = test: Tolerisation of FVIII-specific responses in DR2+ mice by peptide pre-treatment before priming with rhFVIII/CFA; format: in vivo, mouse; settings: 3 x 100 μg i.p. in PBS prior to priming with rhFVIII/CFA; FIG. 6
Experimental: HLA-DR2 transgenic mice were treated with either of the two soluble peptides, or PBS as a control, prior to immunisation with factor VIII in adjuvant. Draining lymph nodes were isolated and the cells restimulated in vitro with factor VIII protein in order to assess the immune status of the mice.
HLA-DR2+ murine MHC class II null mice were treated 3 times with 100 μg of DNIMV (SEQ ID NO: 11), PRCLT (SEQ ID NO: 9) or PPIIA (SEQ ID NO: 4) dissolved in PBS, or the equivalent volume of PBS alone. Peptides were administered intraperitoneally, with 3-4 days between each dose. Following the final administration, mice were primed with rhFVIII emulsified in complete Freunds adjuvant as for (i). 10 days later, draining lymph nodes were recovered and lymphocytes subsequently cultured in vitro with rhFVIII, or each of the tolerising peptides as well as control antigens, for 72 hours before the addition of tritiated thymidine as for (i). (vi) Tolerisation of FVIII-Specific Responses in DR2+Mice by Pre-Treatment with a Combination Immunodominant FVIII Peptides

Sequence: DNIMVTFRNQASRPY [DNIMV, DNIMVTFRNQASRPY]
- solubility (Solubility of peptide): partly, but not completely soluble

Sequence: DTLLIIFKNQASRPY (listed as Homo sapiens) [FVIII 15mer peptide, first AA 478]
- number of hybridomas responding to peptide [1]: 1

Sequence: EDNIMVTFRNQASR [EDNIMV, EDNIMVTFRNQASR]
- solubility (Solubility of peptide): sufficiently soluble to allow intranasal peptide delivery
- solubility relative to parent peptide (Solubility of peptide; compared with DNIMV): more soluble than DNIMV

Sequence: GTLMVFFGNVDSSGI (listed as Homo sapiens) [FVIII 15mer peptide, first AA 2140]
- response of draining lymph node cells to peptide (LNC from FVIII-DR2+ mice): weak response

Sequence: PPIIARYIRLHPTHY (listed as Homo sapiens) [FVIII 15mer peptide, first AA 2161]
- character of hybridoma response to peptide ([2]; 27 hybridomas screened): weaker and less specific
- number of hybridomas responding to peptide [2]: 3
- number of hybridomas responding to peptide [1]: 1

Sequence: PRCLTRYYSSFVNME (listed as Homo sapiens) [FVIII 15mer peptide, first AA 545]
- number of hybridomas responding to peptide [2]: 3
- response of draining lymph node cells to peptide (LNC from FVIII-DR2+ mice): responded well
- number of hybridomas responding to peptide [1]: 6
- presentation by live and fixed APC (function as apitope) [3]: presented by both live and fixed mgar cells
- suppression of the immune response to factor VIII (LNC recall to FVIII) (HLA-DR2 transgenic mice): substantial suppression of the immune response to factor VIII

Sequence: RYLRIHPQSWVHQIA (listed as Homo sapiens) [FVIII 15mer peptide, first AA 2322]
- response of draining lymph node cells to peptide (LNC from FVIII-DR2+ mice): significant response

Sequence: SLYISQFIIMYSLDG (listed as Homo sapiens) [FVIII 15mer peptide, first AA 2114]
- number of hybridomas responding to peptide [1]: 1
